Data as given in US20170157012A1, “A Use of Isosorbide Monooleate” (BASF SE, priority 2014, published 2017).

Assays:
[1] = In-vitro deposition on skin substitute after rinse-off (GC of extract); settings: for In-vitro deposition of Isosorbide monooleate on the skin substitute per area: after rinse with water
Experimental: (§1) For measuring the deposition of isosorbide monooleate on a substrate a formulation containing isosorbide monooleate was applied to this substrate. Then, the treated area was rinsed with a defined amount of water and extracted with an organic solvent in order to determine the amount of isosorbide monooleate that remained on the surface after the rinse cycle. The extract was analyzed by gas chromatography (GC) and the amount of isosorbide monooleate deposited on the surface was calculated. The measurements were carried out as described in the experimental section of WO 2013/007473.
(§2) As substrate the human skin (forearm) of probands (in-vivo deposition) as well as a skin substitute (collagen layer) (in-vitro deposition) was used. The rinse-cycle (dilution with water) imitated the process of having a shower.
(§3) The following formulations were used for the deposition measurements (in-vitro as well as in-vivo).

[2] = In-vivo deposition on human skin after rinse-off (GC of extract)
Experimental: as §1, §2, §3

For isosorbide monooleate, the “In-vitro deposition of Isosorbide monooleate on the skin substitute per area” value (shortened to “In-vitro deposition … per area”) ([1]; 0.5 % by weight isosorbide monooleate in the formulation) was 3.7 μg/cm^2, the “In-vitro deposition … per area” value ([1]; 1 % by weight isosorbide monooleate in the formulation) was 7.3 μg/cm^2 and the “In-vitro deposition … per area” value ([1]; 1.5 % by weight isosorbide monooleate in the formulation) was 8.6 μg/cm^2. For the same substance, the “In-vitro deposition … per area” value ([1]; 2 % by weight isosorbide monooleate in the formulation) was 15.8 μg/cm^2, the “Concentration dependency of deposition on the skin/skin substitute” value ([1]; formulations with 0.5 to 2 % by weight isosorbide monooleate) was “The higher the amount of isosorbide monooleate in the formulation the higher the deposition rate” and the “In-vivo Deposition of isosorbide monooleate on the skin per area” value ([2]; 1 % by weight isosorbide monooleate in the formulation, human forearm skin, after rinse-off) was 0.7 μg/cm^2. The “Remaining on the skin after rinse-off (in words)” value ([2]; formulation with 1% by weight isosorbide monooleate) was “remained in small amounts on the skin after rinse-off”.
